Earlier results, collected in US20130191933A1, “METHODS OF TREATING PAIN AND MORPHINE TOLERANCE VIA MODULATION OF HEDGEHOG SIGNALLING PATHWAY” (BOARD OF REGENTS, THE UNIVERSITY OF TEXAS SYSTEM, priority 2010, published 2013).

What was measured:
[1] = test system: Gli-mediated transcription; settings: cited from earlier work; for Gli-mediated transcription: in a variety of cell types (Cur-61414: cell and tissues types; Robotnikinin: also synthetic human tissue)
Smo = Smo (Homo sapiens, UniProt Q99835); settings: cited from earlier work
[2] = test system: Glil,2-mediated transcription in HaCat cells; settings: cited from earlier work
[3] = test system: Ptchl and BCL2 in HaCaT cells; settings: cited from earlier work

Smo, sequence (Q99835 28-787): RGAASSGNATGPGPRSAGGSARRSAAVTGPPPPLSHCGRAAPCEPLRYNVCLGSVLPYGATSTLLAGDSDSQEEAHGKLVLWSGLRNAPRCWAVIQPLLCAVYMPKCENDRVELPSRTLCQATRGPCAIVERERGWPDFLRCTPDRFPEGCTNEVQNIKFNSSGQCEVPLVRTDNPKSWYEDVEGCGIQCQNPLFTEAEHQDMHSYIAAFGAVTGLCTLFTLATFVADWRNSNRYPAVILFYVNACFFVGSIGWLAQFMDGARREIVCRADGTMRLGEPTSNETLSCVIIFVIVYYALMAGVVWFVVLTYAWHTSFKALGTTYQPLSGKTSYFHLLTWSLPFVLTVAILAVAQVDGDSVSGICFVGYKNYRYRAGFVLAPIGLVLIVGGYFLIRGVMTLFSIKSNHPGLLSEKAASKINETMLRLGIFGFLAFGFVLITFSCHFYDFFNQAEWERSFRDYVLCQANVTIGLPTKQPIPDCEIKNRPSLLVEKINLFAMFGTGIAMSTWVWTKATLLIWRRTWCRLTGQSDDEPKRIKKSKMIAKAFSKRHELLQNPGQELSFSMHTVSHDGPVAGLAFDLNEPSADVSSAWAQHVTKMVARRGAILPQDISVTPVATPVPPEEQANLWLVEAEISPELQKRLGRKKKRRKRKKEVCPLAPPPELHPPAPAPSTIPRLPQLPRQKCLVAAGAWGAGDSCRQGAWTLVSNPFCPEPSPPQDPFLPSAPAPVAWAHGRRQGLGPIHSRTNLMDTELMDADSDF

c1cc(-c2sc(-c3ccncc3)c(-c3ccncc3)c2-c2ccncc2)ccn1 [GANT58]
site of action in the pathway [1]: Acts downstream of Smo and Sufu | Gli-mediated transcription [1]: Represses Gli-medicated transcription in a variety of cell types

CC1=C2C[C@H]3[C@@H](CC[C@@H]4C[C@H](NS(C)(=O)=O)CC[C@@]43C)[C@@H]2CC[C@@]2(C1)O[C@@H]1C[C@H](C)CN[C@H]1[C@H]2C [IPI-926]
targeting / binding of Smo (Smo): Targets Smo | Gli-mediated transcription [1]: Represses Gli-medicated transcription in a variety of cell types

Cc1nn(-c2ccccc2)c(C)c1/C=N/N1CCN(Cc2ccccc2)CC1 [SANT1]
targeting / binding of Smo (Smo): Targets Smo | Gli-mediated transcription [1]: Represses Gli-medicated transcription in a variety of cell types

CC1=C2C[C@H]3[C@@H](CC=C4CC(=O)CC[C@@]43C)[C@@H]2CC[C@]12O[C@@H]1C[C@H](C)CN(CCNC(=O)CCCCCNC(=O)CCc3ccccc3)[C@H]1[C@H]2C [KAAD-cyclopamine]
targeting / binding of Smo (Smo): target Smo

CNC1CCC(N(Cc2cccc(-c3ccncc3)c2)C(=O)c2sc3ccccc3c2Cl)CC1 (stereo not drawn) [SAG]
targeting / binding of Smo (Smo): Binds Smo and competes directly with cyclopamine-Smo | Gli-mediated transcription [1]: Activates Gli-mediated transcription in a variety of cell types

COc1cccc(CN(C(=O)CC(C)(C)C)[C@H]2C[C@@H](C(=O)N3CCNCC3)N(Cc3ccc4c(c3)OCO4)C2)c1 [Cur-61414]
targeting / binding of Smo (Smo): Targets Smo

C[C@@]12C[C@H]3OC(=O)[C@@H]1CO[C@]14O[C@]5([C@H]2C1=O)[C@@](O)(CC[C@H]1[C@H]4C[C@H]2O[C@]24CC=CC(=O)[C@]14C)C(=O)O[C@@]35C [Physalin F]
Glil,2-mediated transcription [2]: Inhibits Glil,2-mediated transcription in HaCat cells | transcription of Ptchl and BCL2 [3]: Inhibits transcription of Ptchl and BCL2 in HaCaT cells

CCOc1cc(C(=O)Nc2ccc(Cl)c(-c3nc4ccccc4[nH]3)c2)cc(OCC)c1OCC [SANT2]
targeting / binding of Smo (Smo): Targets Smo | Gli-mediated transcription [1]: Represses Gli-medicated transcription in a variety of cell types

c1ccc2c(Oc3nc(Nc4ccc(N5CCOCC5)cc4)c4ncn(C5CCCCC5)c4n3)cccc2c1 [Purmorphamine]
targeting / binding of Smo (Smo): Binds Smo and competes directly with cyclopamine-Smo | Gli-mediated transcription [1]: Activates Gli-mediated transcription in a variety of cell types

CS(=O)(=O)c1ccc(C(=O)Nc2ccc(Cl)c(-c3ccccn3)c2)c(Cl)c1 [GDC-0449]
targeting / binding of Smo (Smo): Targets Smo | Gli-mediated transcription [1]: Represses Gli-medicated transcription in a variety of cell types

CC(C)[C@@H](O)CC[C@@H](C)[C@H]1CC[C@H]2[C@@H]3CC=C4C[C@@H](O)CC[C@]4(C)[C@H]3CC[C@]12C [24(S)-Hydroxycholesterol]
targeting / binding of Smo (Smo): Does not bind directly to Smo | Gli-mediated transcription [1]: Activates Gli-mediated transcription in a variety of cell types

C[C@H](CCCC(C)(C)O)[C@H]1CC[C@H]2[C@@H]3CC=C4C[C@@H](O)CC[C@]4(C)[C@H]3CC[C@]12C [25-Hydroxycholesterol]
targeting / binding of Smo (Smo): Does not bind directly to Smo | Gli-mediated transcription [1]: Activates Gli-mediated transcription in a variety of cell types

CC(C)CC[C@H](O)[C@@H](C)[C@H]1CC[C@H]2[C@@H]3CC=C4C[C@@H](O)CC[C@]4(C)[C@H]3CC[C@]12C [22(S)-Hydroxycholesterol]
targeting / binding of Smo (Smo): Does not bind directly to Smo | Gli-mediated transcription [1]: Activates Gli-mediated transcription in a variety of cell types

C[C@]12C(=O)C=CCC1=CC[C@@H]1[C@@H]2CC[C@]2(O)C(=O)O[C@@]3(C)[C@H]4C[C@]5(C)[C@@H](CO[C@@]16O[C@@]32[C@H]5C6=O)C(=O)O4 [Physalin B]
Glil,2-mediated transcription [2]: Inhibits Glil,2-mediated transcription in HaCat cells | transcription of Ptchl and BCL2 [3]: Inhibits transcription of Ptchl and BCL2 in HaCaT cells

O=C1NCc2c1c1c3ccccc3[nH]c1c1[nH]c3ccccc3c21 [Staurosporinone]
Glil,2-mediated transcription [2]: Inhibits Glil,2-mediated transcription in HaCat cells | transcription of Ptchl and BCL2 [3]: Inhibits transcription of Ptchl and BCL2 in HaCaT cells

CCc1ccc(-c2ccc(/C=C/C(=O)N3CCCCC3)cc2)nc1 [SANT4]
targeting / binding of Smo (Smo): Targets Smo | Gli-mediated transcription [1]: Represses Gli-medicated transcription in a variety of cell types

CC(C)CCC[C@](C)(O)[C@H]1CC[C@H]2[C@@H]3CC=C4C[C@@H](O)CC[C@]4(C)[C@H]3CC[C@@]21C [20α-Hydroxycholesterol]
targeting / binding of Smo (Smo): Does not bind directly to Smo | Gli-mediated transcription [1]: Activates Gli-mediated transcription in a variety of cell types

CN(C)c1ccccc1CN1CCCN(Cc2ccccc2N(C)C)C1c1ccncc1 [GANT61]
site of action in the pathway [1]: Acts downstream of Smo and Sufu | Gli-mediated transcription [1]: Represses Gli-medicated transcription in a variety of cell types

C/C1=C\CC(C)(C)/C=C/C(=O)/C(C)=C/CC1 [Zerumbone]
Glil,2-mediated transcription [2]: Inhibits Glil,2-mediated transcription in HaCat cells | transcription of Ptchl and BCL2 [3]: Inhibits transcription of Ptchl and BCL2 in HaCaT cells
